Results on eight compounds are retold here after article PMC10728895, “Stapled Phd Peptides Inhibit Doc Toxin Induced Growth Arrest in Salmonella” (ACS Chemical Biology, 2023).

For one test, the system named is DocSTm toxin. To be noted: DocSTm 5 μM, peptide 50 μM; for ΔTm (thermal shift) of DocSTm in the presence of peptide: SYPRO Orange 3×, 20 mM K2HPO4, 50 mM (NH4)2SO4, pH 8.0, average Tm with peptide minus average Tm of free DocSTm, mean ± SD; for Average Tm of DocSTm in the presence of peptide: pH 8.0, average ± SD, replicates 3-48 (Table S3). As to the method:
The thermal shift assay was performed using a Mx3005P qPCR System (Agilent) collecting fluorescence data with a temperature ramp of 25 to 95 °C. Samples were prepared in a buffer containing 20 mM K2HPO4 and 50 mM (NH4)2SO4 at pH 8.0, with a final concentration of recombinant Doc protein at 5 μM and Phd peptides at 50 μM. SYPRO Orange dye (Sigma-Aldrich, 5000X stock in DMSO) was used to monitor protein denaturation in a final concentration of 3×. The final sample volume was 20 μL. Each condition was prepared in triplicate in each independent experiment. The melting curves were plotted using GraphPad Prism 9 (GraphPad Software, USA), and the melting temperatures were obtained by fitting the sigmoidal section of the curves to a Boltzmann sigmoid function. For the calculation of thermal shifts ΔTm, the average melting temperature of free DocSTm toxin as determined in the respective peptide measurement cycles was subtracted from the average melting temperature of DocSTm in the presence of the peptide (Table S3).

Test [1] concerns DocSTm (phosphorylation of EF-TuSTm). Kind of test: Dot blot EF-Tu phosphorylation assay. The format is biochemical, Salmonella Typhimurium. The conditions noted are these: DocSTm 1 μM, EF-TuSTm 3 μM, peptide 10 μM to 5 nM (3-fold dilutions), 16 h RT, dot blot anti-phosphothreonine; compared at three times the DocSTm concentration; two independent experiments. Here is the method: Samples were prepared in assay buffer [50 mM HEPES (pH 7.5), 25 mM (NH4)2SO4, 2 mM TCEP, 2 mM MgCl2, and 1 mM ATP] with a final concentration of recombinant Doc at 1 μM, recombinant EF-Tu at 3 μM, and varying concentrations of synthetic Phd peptides (final concentrations: 10 μM to 5 nM). EF-Tu (3 μM) in assay buffer was used as a negative control (no Doc and Phd peptide), while EF-Tu (3 μM) with Doc (1 μM) in assay buffer was used as a positive control (no Doc inhibitor). The final sample volume was 10 μL. Samples were incubated for 16 h at RT and subsequently spotted on a nitrocellulose membrane. Phosphorylated EF-Tu was detected by immunodecoration using a rabbit monoclonal antiphosphothreonine antibody (Abcam, ab218195) at 1:2000 dilution (1 h at 4 °C), followed by incubation with a goat antirabbit IgG (H + L) HRP conjugate antibody (Advansta) at 1:10,000 dilution (1 h at RT). Chemiluminescence was developed using the HRP Luminata Kit (Merck, WBLUR0100) and captured with an ImageQuant LAS4000 Western blot imaging system (GE HealthCare). Each peptide was tested in two independent experiments.

Positions of bridges follow the written chain, without caps; N, C: chain ends. Non-standard residues stand in square brackets, D forms with d. Residues, ends and D or L forms follow the SMILES beside them. S5 = C=CCCC[C@](C)(N)C(=O)O; Nle = CCCC[C@H](N)C(=O)O

As to `CCCC[C@H](NC(=O)[C@H](Cc1c[nH]c2ccccc12)NC(C)=O)C(=O)N[C@@H](CC(=O)O)C(=O)N[C@@H](CC(N)=O)C(=O)N[C@@H](CCC(=O)O)C(=O)N[C@@H](Cc1ccccc1)C(=O)N[C@@H](C)C(=O)N[C@@H](C)C(=O)N[C@H](C(=O)N[C@@H](CCCC)C(=O)N[C@@H](C)C(=O)N[C@H](C(=O)N[C@@H](Cc1c[nH]cn1)C(=O)NCC(=O)N[C@@H](CCCNC(=N)N)C(=O)N[C@@H](CCC(N)=O)C(=O)N[C@@H](CC(C)C)C(=O)N[C@@H](CCCNC(=N)N)C(=O)N[C@@H](CCCNC(=N)N)C(=O)N[C@@H](CC(C)C)C(=O)N[C@@H](C)C(=O)N[C@@H](CC(N)=O)C(=O)N[C@@H](CCCCN)C(=O)O)C(C)C)[C@@H](C)CC` [Peptide 30] (Ac-W[Nle]DNEFAAI[Nle]AVHGRQLRRLANK-OH), in the test on DocSTm toxin, the “ΔTm (thermal shift) of DocSTm in the presence of peptide” value was “≈ 14 °C” and the “Average Tm of DocSTm in the presence of peptide” value (from here on “Average Tm of DocSTm”) turned out to be 56.7 ± 2.6 °C. The “Inhibition of EF-TuSTm phosphorylation by DocSTm (concentration needed for full inhibition)” value (shortened to “Inhibition of EF-TuSTm phosphorylation”) in test [1] is “higher than three times the DocSTm concentration”.

As to `CCCC[C@H](NC(=O)[C@H](Cc1c[nH]c2ccccc12)NC(C)=O)C(=O)N[C@@H](CC(N)=O)C(=O)N[C@@H](CC(N)=O)C(=O)N[C@@H](CCC(=O)O)C(=O)N[C@@H](Cc1ccccc1)C(=O)N[C@@H](C)C(=O)N[C@@H](C)C(=O)N[C@H](C(=O)N[C@@H](CCCC)C(=O)N[C@@H](C)C(=O)N[C@H](C(=O)N[C@@H](Cc1c[nH]cn1)C(=O)NCC(=O)N[C@@H](CCCNC(=N)N)C(=O)N[C@@H](CCC(N)=O)C(=O)N[C@@H](CC(C)C)C(=O)N[C@@H](CCCNC(=N)N)C(=O)N[C@@H](CCCNC(=N)N)C(=O)N[C@@H](CC(C)C)C(=O)N[C@@H](C)C(=O)N[C@@H](CCCNC(=N)N)C(=O)N[C@@H](CCCCN)C(=O)O)C(C)C)[C@@H](C)CC` [Peptide 33] (Ac-W[Nle]NNEFAAI[Nle]AVHGRQLRRLARK-OH), in the test with DocSTm toxin, the “Average Tm of DocSTm” value amounted to 63.0 ± 0.8 °C. In test [1], the “Inhibition of EF-TuSTm phosphorylation” value is “higher than three times the DocSTm concentration”.

Regarding `CCCC[C@H](NC(=O)[C@H](Cc1c[nH]c2ccccc12)NC(C)=O)C(=O)N[C@@H](CC(=O)O)C(=O)N[C@@H](CC(N)=O)C(=O)N[C@@H](CCC(=O)O)C(=O)N[C@@H](Cc1ccccc1)C(=O)N[C@@H](C)C(=O)N[C@@H](C)C(=O)N[C@H](C(=O)N[C@@H](CCCC)C(=O)N[C@@H](C)C(=O)N[C@H](C(=O)N[C@@H](Cc1c[nH]cn1)C(=O)NCC(=O)N[C@@H](CCCNC(=N)N)C(=O)N[C@@H](CCC(N)=O)C(=O)N[C@@H](CC(C)C)C(=O)N[C@@H](CCCNC(=N)N)C(=O)N[C@@H](CCCNC(=N)N)C(=O)N[C@@H](CC(C)C)C(=O)N[C@@H](C)C(=O)N[C@@H](CCCNC(=N)N)C(=O)N[C@@H](CCCCN)C(=O)O)C(C)C)[C@@H](C)CC` [Peptide 32] (Ac-W[Nle]DNEFAAI[Nle]AVHGRQLRRLARK-OH), in the test on DocSTm toxin, the “Average Tm of DocSTm” value is 62.6 ± 1.2 °C. Besides, the “Inhibition of EF-TuSTm phosphorylation” value in test [1] is “close to the activity of peptide 1”.

Take `CCCC[C@H](NC(=O)[C@H](Cc1c[nH]c2ccccc12)NC(C)=O)C(=O)N[C@@H](CCCNC(=N)N)C(=O)N[C@@H](CC(N)=O)C(=O)N[C@@H](CCC(N)=O)C(=O)N[C@@H](Cc1ccccc1)C(=O)N[C@@H](C)C(=O)N[C@@H](C)C(=O)N[C@H](C(=O)N[C@@H](CCCC)C(=O)N[C@@H](CCCNC(=N)N)C(=O)N[C@H](C(=O)N[C@@H](Cc1c[nH]cn1)C(=O)NCC(=O)N[C@@]1(C)CCCC=CCCC[C@@](C)(C(=O)N[C@@H](CC(C)C)C(=O)N[C@@H](C)C(=O)N[C@@H](CC(N)=O)C(=O)N[C@@H](CCCCN)C(=O)O)NC(=O)[C@H](CCCNC(=N)N)NC(=O)[C@H](CC(C)C)NC(=O)[C@H](CCC(N)=O)NC1=O)C(C)C)[C@@H](C)CC` [Peptide 23] (Ac-W[Nle]RNQFAAI[Nle]RVHG[S5]QLR[S5]LANK-OH; staple 15-19): the “Average Tm of DocSTm” value in the test with DocSTm toxin came to 57.5 ± 0.9 °C.

For the compound `CCCC[C@H](NC(=O)[C@H](Cc1c[nH]c2ccccc12)NC(C)=O)C(=O)N[C@@H](CCCNC(=N)N)C(=O)N[C@@H](CCCNC(=N)N)C(=O)N[C@@H](CCC(=O)O)C(=O)N[C@@H](Cc1ccccc1)C(=O)N[C@@H](CCCNC(=N)N)C(=O)N[C@@H](CCCNC(=N)N)C(=O)N[C@H](C(=O)N[C@@H](CCCC)C(=O)N[C@@H](CCCNC(=N)N)C(=O)N[C@H](C(=O)N[C@@H](Cc1c[nH]cn1)C(=O)NCC(=O)N[C@@H](CCCNC(=N)N)C(=O)N[C@@H](CCC(=O)O)C(=O)N[C@@H](CC(C)C)C(=O)N[C@@H](CCCNC(=N)N)C(=O)N[C@@H](CCC(=O)O)C(=O)N[C@@H](CC(C)C)C(=O)N[C@@H](C)C(=O)N[C@@H](CC(=O)O)C(=O)N[C@@H](CCCCN)C(=O)O)C(C)C)[C@@H](C)CC` [Peptide 15] (Ac-W[Nle]RREFRRI[Nle]RVHGRELRELADK-OH), in the test on DocSTm toxin, the “ΔTm (thermal shift) of DocSTm in the presence of peptide” value was 11–13 °C and the “Average Tm of DocSTm” value turned out to be 57.8 ± 0.7 °C.

As for `CCCC[C@H](NC(=O)[C@H](Cc1c[nH]c2ccccc12)NC(C)=O)C(=O)N[C@@H](CC(=O)O)C(=O)N[C@@H](CCCNC(=N)N)C(=O)N[C@@H](CCC(=O)O)C(=O)N[C@@H](Cc1ccccc1)C(=O)N[C@@H](C)C(=O)N[C@@H](C)C(=O)N[C@H](C(=O)N[C@@H](CCCC)C(=O)N[C@@H](C)C(=O)N[C@H](C(=O)N[C@@H](Cc1c[nH]cn1)C(=O)NCC(=O)N[C@@H](CC(N)=O)C(=O)N[C@@H](CCC(=O)O)C(=O)N[C@@H](CC(C)C)C(=O)N[C@@H](CCCNC(=N)N)C(=O)N[C@@H](CCC(=O)O)C(=O)N[C@@H](CC(C)C)C(=O)N[C@@H](C)C(=O)N[C@@H](CC(=O)O)C(=O)N[C@@H](CCCCN)C(=O)O)C(C)C)[C@@H](C)CC` [Peptide 3] (Ac-W[Nle]DREFAAI[Nle]AVHGNELRELADK-OH), the “Average Tm of DocSTm” value in the test on DocSTm toxin worked out at 67.4 ± 0.2 °C.

Consider `CCCC[C@H](NC(=O)[C@H](Cc1c[nH]c2ccccc12)NC(C)=O)C(=O)N[C@@H](CCCNC(=N)N)C(=O)N[C@@H](CC(N)=O)C(=O)N[C@@H](CCC(N)=O)C(=O)N[C@@H](Cc1ccccc1)C(=O)N[C@@H](CCCNC(=N)N)C(=O)N[C@@H](C)C(=O)N[C@H](C(=O)N[C@@H](CCCC)C(=O)N[C@@H](CCCNC(=N)N)C(=O)N[C@H](C(=O)N[C@@H](Cc1c[nH]cn1)C(=O)NCC(=O)N[C@@H](CC(N)=O)C(=O)N[C@@H](CCC(N)=O)C(=O)N[C@@H](CC(C)C)C(=O)N[C@@H](CCCNC(=N)N)C(=O)N[C@@H](CCC(=O)O)C(=O)N[C@@H](CC(C)C)C(=O)N[C@@H](C)C(=O)N[C@@H](CC(N)=O)C(=O)N[C@@H](CCCCN)C(=O)O)C(C)C)[C@@H](C)CC` [Peptide 24] (Ac-W[Nle]RNQFRAI[Nle]RVHGNQLRELANK-OH), for which, in the test with DocSTm toxin, the “Average Tm of DocSTm” value was 54.3 ± 1.6 °C.

Regarding `CCCC[C@H](NC(=O)[C@H](Cc1c[nH]c2ccccc12)NC(C)=O)C(=O)N[C@@H](CC(=O)O)C(=O)N[C@@H](CC(=O)O)C(=O)N[C@@H](CCC(=O)O)C(=O)N[C@@H](Cc1ccccc1)C(=O)N[C@@H](C)C(=O)N[C@@H](C)C(=O)N[C@H](C(=O)N[C@@H](CCCC)C(=O)N[C@@H](C)C(=O)N[C@H](C(=O)N[C@@H](Cc1c[nH]cn1)C(=O)NCC(=O)N[C@@H](CC(N)=O)C(=O)N[C@@H](CCCNC(=N)N)C(=O)N[C@@H](CC(C)C)C(=O)N[C@@H](CCCNC(=N)N)C(=O)N[C@@H](CCC(=O)O)C(=O)N[C@@H](CC(C)C)C(=O)N[C@@H](C)C(=O)N[C@@H](CC(=O)O)C(=O)N[C@@H](CCCCN)C(=O)O)C(C)C)[C@@H](C)CC` [Peptide 10] (Ac-W[Nle]DDEFAAI[Nle]AVHGNRLRELADK-OH), in the test on DocSTm toxin, the “Average Tm of DocSTm” value came to 59.5 ± 0.3 °C.
